This note sets out measurements from patent US20090099169A1, “Benzofuran Compounds As EP1 Receptor Antagonists” (GLAXO GROUP LIMITED, priority 2006, published 2009).

Counter-ions that a name gives are not always drawn.

Experiment [1] deals with T1, human EP1 receptor (Homo sapiens, UniProt P34995).
T1 sequence (P34995 1-402): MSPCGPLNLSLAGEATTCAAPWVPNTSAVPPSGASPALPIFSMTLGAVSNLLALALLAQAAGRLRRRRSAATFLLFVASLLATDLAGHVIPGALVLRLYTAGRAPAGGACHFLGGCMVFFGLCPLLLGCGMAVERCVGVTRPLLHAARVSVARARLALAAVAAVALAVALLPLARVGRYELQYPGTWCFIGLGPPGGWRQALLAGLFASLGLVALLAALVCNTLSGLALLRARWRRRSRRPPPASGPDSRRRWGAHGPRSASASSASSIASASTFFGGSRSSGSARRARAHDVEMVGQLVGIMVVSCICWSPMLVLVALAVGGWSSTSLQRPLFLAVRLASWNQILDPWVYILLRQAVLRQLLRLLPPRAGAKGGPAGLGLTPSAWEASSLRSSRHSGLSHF
In words: Binding assay for the human prostanoid EP1 receptor (radioligand competition). Further details: expressed in transfected cells; host or cells: CHO-K1 (membranes). The settings on record: CHO-K1 membranes; [3H]-PGE2 for Examples 1-17, 19, 33, 34, 60 and 61, 3-{2-[5-Bromo-2-(2,4-difluorobenzyloxy)-phenyl]-5-methyl-pyrrol-1-yl}-6-[3H3-methoxy]methoxy-benzoic acid for the remaining; averages of a number of experiments; read-out: pIC50 value (binding assay for the human prostanoid EP1 receptor) (converted). As to the method: Compound potencies are determined using a radioligand binding assay. In this assay compound potencies are determined from their ability to compete with tritiated prostaglandin E2 ([^3H]-PGE2) for binding to the human EP1 receptor.
This assay utilises Chinese hamster ovary-K1 (CHO-K1) cells into which a stable vector containing the EP1 cDNA has previously been transfected. Cells are cultured in suitable flasks containing culture medium such as DMEM:F-12 supplemented with 10% v/v foetal calf serum, 2 mM L-glutamine, 0.25 mg/ml geneticin, 10 μg/ml puromycin and 10 μM indomethacin.
Cells are detached from the culture flasks by incubation in calcium and magnesium free phosphate buffered saline containing 1 mM disodium ethylenediaminetetraacetic acid (Na2EDTA) and […] indomethacin for 5 min. The cells are isolated by centrifugation at 250×g for 5mins and suspended in an ice cold buffer such as 50 mM Tris, 1 mM Na2EDTA, 140 mM NaCl, 10 μM indomethacin (pH 7.4). The cells are homogenised using a Polytron tissue disrupter (2×10 s burst at full setting), centrifuged at 48,000×g for 20mins and the pellet containing the membrane fraction is washed (optional) three times by suspension and centrifugation at 48,000×g for 20mins. The final membrane pellet is suspended in an assay buffer such as 10 mM 2-[N-morpholino]ethanesulphonic acid, 1 mM Na2EDTA, 10 mM MgCl2 (pH 6). Aliquots are frozen at −80° C. until required.
For the binding assay the cell membranes, competing compounds and [^3H]-PGE2 (3 nM final assay concentration) are incubated in a final volume of 100 μl for 30 min at 30° C. All reagents are prepared in assay buffer. Reactions are terminated by rapid vacuum filtration over GF/B filters using a Brandell cell harvester. The filters are washed with ice cold assay buffer, dried and the radioactivity retained on the filters is measured by liquid scintillation counting in Packard TopCount scintillation counter.
The data are analysed using non linear curve fitting techniques to determine the concentration of compound producing 50% inhibition of specific binding (IC50).
Alternatively a similar assay may be carried out using 3-{2-[5-Bromo-2-(2,4-difluoro-benzyloxy)-phenyl]-5-methyl-pyrrol-1-yl}-6-[^3H3-methoxy]methoxy-benzoic acid instead of [^3H]-PGE2.
For the binding assay using 3-{2-[5-Bromo-2-(2,4-difluoro-benzyloxy)-phenyl]-5-methyl-pyrrol-1-yl}-6-[^3H3-methoxy]methoxy-benzoic acid instead of [^3H]-PGE2 the assay is carried out using a similar procedure to that described above using [^3H]-PGE2 with the following changes:
The cell membranes, competing compounds and 3-{2-[5-Bromo-2-(2,4-difluoro-benzyloxy)-phenyl]-5-methyl-pyrrol-1-yl}-6-[^3H3-methoxy]methoxy-benzoic acid (0.2 nM final assay concentration) are incubated in a final volume of 400 μl for 45 min at 37° C. All reagents are prepared in assay buffer. Reactions are terminated by rapid vacuum filtration over GF/B filters using a Brandell cell harvester. The filters are washed with water at ambient temperature, dried and the radioactivity retained on the filters is measured by liquid scintillation counting in Packard TopCount scintillation counter.
The preparation of 3-{2-[5-Bromo-2-(2,4-difluoro-benzyloxy)-phenyl]-5-methyl-pyrrol-1-yl}-6-methoxy-benzoic acid is described in WO 03/101959 and in Hall et al, Biorg. Med. Chem. Lett., 2007, 17, 916-920. The tritiated version may be prepared via conventional routes, e.g. from 3-{2-[5-bromo-2-(2,4-difluoro-benzyloxy)-phenyl]-5-methyl-pyrrol-1-yl}-6-hydroxy-benzoic acid or 3-{2-[5-bromo-2-(2,4-difluoro-benzyloxy)-phenyl]-5-methyl-pyrrol-1-yl}-6-hydroxy-benzoic acid methyl ester.

Experiment [2] addresses T1, human EP1 receptor. Nature of the experiment: human EP1 calcium mobilisation assay. The experiment is classed as cell-based. Further details: expressed in transfected cells. The settings on record: CHO-K1 cells, antagonism of PGE2; averages of a number of experiments; read-out: functional pKi value (human EP1 calcium mobilisation assay) (converted). On the procedure: Briefly, the antagonist properties of compounds are assessed by their ability to inhibit the mobilisation of intracellular calcium ([Ca^2+]i) in response to activation of EP1 or EP3 receptors by the natural agonist hormone prostaglandin E2 (PGE2). Increasing concentrations of antagonist reduce the amount of calcium that a given concentration of PGE2 can mobilise. The net effect is to displace the PGE2 concentration-effect curve to higher concentrations of PGE2. The amount of calcium produced is assessed using a calcium-sensitive fluorescent dye such as Fluo-4, AM and a suitable instrument such as a Fluorimetric Imaging Plate Reader (FLIPR). Increasing amounts of [Ca^2+]i produced by receptor activation increase the amount of fluorescence produced by the dye and give rise to an increasing signal. The signal may be detected using the FLIPR instrument and the data generated may be analysed with suitable curve-fitting software.
The human EP1 or EP3 calcium mobilisation assay (hereafter referred to as ‘the calcium assay’) utilises Chinese hamster ovary-K1 (CHO-K1) cells into which a stable (PCIN; BioTechniques 20 (1996): 102-110) vector containing either EP1 or EP3 cDNA has previously been transfected. Cells are cultured in suitable flasks containing culture medium such as DMEM:F-12 supplemented with 10% v/v foetal calf serum, 2 mM L-glutamine, 0.25 mg/ml geneticin, 100 μM flurbiprofen and 10 μg/ml puromycin.
For assay, cells are harvested using a proprietary reagent that dislodges cells such as Versene. Cells are re-suspended in a suitable quantity of fresh culture media for introduction into a 384-well plate. Following incubation for 24 hours at 37° C. the culture media is replaced with a medium containing Fluo-4 and the detergent pluronic acid, and a further incubation takes place. Concentrations of compounds are then added to the plate in order to construct concentration-effect curves. This may be performed on the FLIPR in order to assess the agonist properties of the compounds. Concentrations of PGE2 are then added to the plate in order to assess the antagonist properties of the compounds.
The data so generated may be analysed by means of a computerised curve-fitting routine. The concentration of compound that elicits a half-maximal inhibition of the calcium mobilisation induced by PGE2 (pIC50) may then be estimated.
In general terms: Calcium assays in cells follow changes in intracellular calcium, usually with a dye or a luminescent sensor.

Take `Cc1cc(-c2nc3ccccc3[nH]2)nn1Cc1cc(Cl)cc2cc(C(C)C)oc12` [Example 5, 2-(1-{[5-Chloro-2-(1-methylethyl)-1-benzofuran-7-yl]methyl}-5-methyl-1H-pyrazol-3-yl)-1H-benzimidazole Hydrochloride]: the IC50 on human EP1 receptor [1] is at most 100 nM. Moreover, at human EP1 receptor [2], the Ki was at most 316 nM.

In the case of `Cc1cc(C(=O)NN2CCCCC2)nn1Cc1cc(Cl)cc2cc(C(C)C)oc12` [Example 6, 1-{[5-Chloro-2-(1-methylethyl)-1-benzofuran-7-yl]methyl}-5-methyl-N-1-piperidinyl-1H-pyrazole-3-carboxamide], the IC50 on human EP1 receptor [1] was at most 100 nM. Further, the Ki at human EP1 receptor [2] is at most 316 nM.

In the case of `Cc1cc(C(=O)NN2CCOCC2)nn1Cc1cc(Cl)cc2cc(C(C)C)oc12` [Example 7, 1-{[5-Chloro-2-(1-methylethyl)-1-benzofuran-7-yl]methyl}-5-methyl-N-4-morpholinyl-1H-pyrazole-3-carboxamide], on human EP1 receptor [1], the IC50 was at most 100 nM. The Ki on human EP1 receptor [2] is at most 316 nM.

On to `CC(C)c1cc2cc(Cl)cc(Cc3ccc(-c4nc5cc(CO)ccc5[nH]4)o3)c2o1` [Example 9, [2-(5-{[5-Chloro-2-(1-methylethyl)-1-benzofuran-7-yl]methyl}-2-furanyl)-1H-benzimidazol-5-yl]methanol Hydrochloride], for which the IC50 on human EP1 receptor [1] is at most 100 nM. For the same compound, the Ki on human EP1 receptor [2] is at most 316 nM.

Regarding `Cc1cc(C(=O)NN2CCOCC2)nn1Cc1cc(Br)cc2cc(C(C)C)oc12` [Example 18, 1-{[5-Bromo-2-(1-methylethyl)-1-benzofuran-7-yl]methyl}-5-methyl-N-4-morpholinyl-1H-pyrazole-3-carboxamide], the IC50 at human EP1 receptor [1] is at most 100 nM. Further, the Ki on human EP1 receptor [2] is at most 316 nM.

Regarding `Cc1cc(C(=O)O)nn1Cc1cc(Br)cc2cc(C(C)C)oc12` [Example 19, 1-{[5-Bromo-2-(1-methylethyl)-1-benzofuran-7-yl]methyl}-5-methyl-1H-pyrazole-3-carboxylic Acid], the IC50 on human EP1 receptor [1] was at most 100 nM. Moreover, on human EP1 receptor [2], the Ki was at most 316 nM.

For `Cc1cc(C(=O)O)nn1Cc1cc(Cl)cc2cc(C3CC3)oc12` [Example 23, Sodium 1-[(5-chloro-2-cyclopropyl-1-benzofuran-7-yl)methyl]-5-methyl-1H-pyrazole-3-carboxylate], the IC50 at human EP1 receptor [1] is at most 100 nM.

For `CC(C)c1cc2cc(Cl)cc(Cc3cccc(C(=O)O)n3)c2o1` [Example 24], at human EP1 receptor [1], the IC50 is at most 100 nM. Besides, the Ki at human EP1 receptor [2] was at most 316 nM.

In the case of `Cc1cc(C(=O)O)nn1Cc1cc(C#N)cc2cc(C(C)C)oc12` [Example 25, 1-{[5-Cyano-2-(1-methylethyl)-1-benzofuran-7-yl]methyl}-5-methyl-1H-pyrazole-3-carboxylic Acid], on human EP1 receptor [1], the IC50 was at most 100 nM. For the same compound, the Ki at human EP1 receptor [2] is at most 316 nM.

Take `Cc1cc(C(=O)Nc2ccc(CN3CCC(O)CC3)cc2)nn1Cc1cc(Br)cc2cc(C(C)C)oc12` [Example 49, 1-{[5-Bromo-2-(1-methylethyl)-1-benzofuran-7-yl]methyl}-N-{4-[(4-hydroxy-1-piperidinyl)methyl]phenyl}-5-methyl-1H-pyrazole-3-carboxamide Hydrochloride]: the IC50 on human EP1 receptor [1] was at most 100 nM.

As for `CC(C)c1cc2cc(Cl)cc(Cc3ccc(C(=O)NCCN(C)C)o3)c2o1` [Example 58, 5-{[5-Chloro-2-(1-methylethyl)-1-benzofuran-7-yl]methyl}-N-[2-(dimethylamino)ethyl]-2-furancarboxamidehydrochloride], on human EP1 receptor [2], the Ki is 1000 to 1580 nM.

As for `Cc1cc(C(=O)NCC2CCOCC2)nn1Cc1cc(Cl)cc2cc(C(C)C)oc12` [Example 61, 1-{[5-Chloro-2-(1-methylethyl)-1-benzofuran-7-yl]methyl}-5-methyl-N-(tetrahydro-2H-pyran-4-ylmethyl)-1H-pyrazole-3-carboxamide], on human EP1 receptor [2], the Ki was at most 316 nM.

With `Cc1cc(NC(=O)[C@H]2CC[C@@H](O)CC2)nn1Cc1cc(Cl)cc2cc(C(C)C)oc12` [Example 62, cis-N-(1-{[5-Chloro-2-(1-methylethyl)-1-benzofuran-7-yl]methyl}-5-methyl-1H-pyrazol-3-yl)-4-hydroxycyclohexanecarboxamide], the IC50 at human EP1 receptor [1] is at most 100 nM.

Turning to `Cc1cc(NC(=O)[C@H]2CC[C@H](O)CC2)nn1Cc1cc(Cl)cc2cc(C(C)C)oc12` [Example 63, trans-N-(1-{[5-chloro-2-(1-methylethyl)-1-benzofuran-7-yl]methyl}-5-methyl-1H-pyrazol-3-yl)-4-hydroxycyclohexanecarboxamide], the IC50 on human EP1 receptor [1] is at most 100 nM.

Take `Cc1cc(NC(=O)c2ccc(CN3CCCC3)cc2)nn1Cc1cc(Cl)cc2cc(C(C)C)oc12` [Example 67]: at human EP1 receptor [1], the IC50 is at most 100 nM.

Turning to `Cc1cc(NC(=O)[C@H]2CCCO2)nn1Cc1cc(C#N)cc2cc(C(C)C)oc12` [Example 69, (2R)—N-(1-{[5-Cyano-2-(1-methylethyl)-1-benzofuran-7-yl]methyl}-5-methyl-1H-pyrazol-3-yl)tetrahydro-2-furancarboxamide], the Ki at human EP1 receptor [2] was at most 316 nM.

For the compound `Cc1cc(NC(=O)C2CCOCC2)nn1Cc1cc(C#N)cc2cc(C(C)C)oc12` [Example 70, N-(1-{[5-Cyano-2-(1-methylethyl)-1-benzofuran-7-yl]methyl}-5-methyl-1H-pyrazol-3-yl)tetrahydro-2H-pyran-4-carboxamide], the Ki at human EP1 receptor [2] is at most 316 nM.
